Laboratory results from patent US20100179130A1, “USE OF PIPERINE AND DERIVATIVES THEREOF FOR THE THERAPY OF NEUROLOGICAL CONDITIONS” (SYNGIS Bioscience GmbH & Co. KG, priority 2007, published 2010).

Experiments:
[1] = oral, approximately 5 to 20 mg daily, human patients; cited from earlier work
[2] = tested on: carageenan-induced rat paw edema; settings: in vivo; cited from earlier work
[3] = in vivo; cited from earlier work
[4] = cited from earlier work
[5] = tested on: motoneural cell line NSC-34; assay: Anti-apoptosis assay on motoneural cell line, staurosporine induced apoptosis, Caspase-Glo 3/7; type: cell-based; settings: compound 1 μM in the presence of staurosporine 0.1 μM
Procedure: Instead of the SH-SY5Y cells used in Example 3 and 4, this analysis was performed with motoneural cell line NSC-34. […] Incubation with staurosporine (SP; 0.1 μM) alone served as positive control and incubation with vehicle served as negative control. The degree of apoptosis relative to the staurosporine control is shown in FIG. 4 (vehicle (sham): 6%; staurosporine (SP): 100%; piperine plus staurosporine: 70%; derivative B plus staurosporine: 55%; derivative E plus staurosporine: 75%; derivative G plus staurosporine: 76%; derivative K plus staurosporine: 83%; derivative S plus staurosporine: 77%; derivative U plus staurosporine: 71%).

[6] = tested on: mice; settings: cited from earlier work
[7] = tested on: neural stem cells; assay: In vitro differentiation assay on adult neural stem cells (beta-III-tubulin promoter firefly/Renilla dual luciferase reporter); type: cell-based, rat
Description: The neuroregenerative effect of the compounds according to the present invention can be assayed in vitro by measuring their stimulation of the differentiation of neural stem cells. Therefore, adult neural stem cells have to be isolated and subsequently cultivated in a suitable culture medium. After several passages in vitro the stem cells have to be co-transfected with a DNA construct coding for two discriminable reporter proteins one of them under the control of a constitutive promoter and the other under the control of a beta-III-tubulin promoter. The beta-III-tubulin promoter is induced during the process of neural stem cell differentiation; therefore the reporter protein under the control of this promoter serves as a marker for the stem cell differentiation in such an in vitro dual reporter assay (Schneider et al., J Clin Investigation 2005; 115:2083-2098). The person skilled in the art knows several suitable constitutive promoters such as the SV40-promoter, the TK-promoter, or the CMV-promoter. As discriminable reporter proteins for such a dual reporter assay one can use discriminable luciferases such as firefly luciferase and Renilla luciferase. The transfected cells have to be incubated with the test compound and with a positive and negative controls for normalization and background correction. As a positive control compound one can use retinoic acid (Guan et al., Cell Tissue Res. 2001; 305:171-176; Jacobs et al., Proc. Natl. Acad. Sci. USA 2006; 103:3902-3907), a suitable negative control is the sham treatment of the cells. The neroregenerative activity of the test compound is determined as the ratio of the signal of the beta-III-tubulin promoter controlled reporter versus the signal of the constitutively expressed reporter and is expressed as fold from the control. This assay is suitable to assess the neuroregenerative activity of piperine and derivatives thereof, but also can be used to screen for other potential neuroregenerative compounds. Preferably, such a screening can be used to test compounds which are already known to be suitable as a medicament in terms of its toxicology, bioavailability, solubility, stability etc.
Neural stem cells were isolated from the subventricular zone of 4 week-old male Wistar rats as described (Maurer et al, Proteome Sci. 2003; 1:4). Cells were cultivated in Neurobasal medium (Invitrogen) supplemented with B27 (Invitrogen), 2 mM L-glutamine, 100 units/ml penicillin, 100 units/ml streptomycin, 20 ng/ml […] (EGF), 20 ng/ml fibroblast growth factor-2 (FGF-2), and 2 μg/ml heparin. Once a week the neural stem cells were passaged and experiments were performed after 4 weeks in vitro. For DNA transfection, the cells were dissociated and plated on poly-L-ornithin/laminin-coated 96-well plates at a density of 50.000 cells/well. Cotransfection with the pGL3-p-βIII-tubulin vector (100 ng/well) and the pRL SV40 vector (100 ng/well) was carried out according to the FuGene6 Transfection protocol (Roche). The pRL SV40 vector (Promega) served as an internal control vector.
To amplify the class III β-tubulin gene promoter (fragment −450-+54), rat genomic DNA was used as a template for PCR (Dennis et al., Gene 2002; 294:269-277). The amplified fragment was inserted into the Mlu I/Xho I site of the pGL3-Basic firefly luciferase reporter vector (Promega) to generate the pGL3-p-βIII-tubulin experimental vector.
After overnight incubation, the plate was decanted and given in 8-fold replicates fresh medium containing piperine (Sigma) or vehicle. As a positive control for in vitro differentiation, stem cells were treated by adding 1 μM retinoic acid (Sigma) to the medium missing the mitogens.
After 48 hrs, the cells were harvested to prepare the cellular extracts for luciferase assay following the directions of the manufacturer (Promega). […]

[8] = cited from earlier work; remark: listed apart in the source
[9] = tested on: adult rats; assay: Neurogenesis in vivo, BrdU/NeuN co-staining of hippocampal slices; set-up: species or system rat; settings: 6 weeks
Procedure: Male adult rats were divided in three groups. The rats were treated i.p. with 20% Solutol-HS15 (BASF SE) as vehicle (control group, n=11), 1 mg/kg bodyweight piperine (piperine I group, n=14 with total dose of 5 mg/kg piperin), or 10 mg/kg bodyweight piperine (piperine II group, n=13 with total dose of 50 mg/kg) once daily for 5 consecutive days. Piperine was solved in 20% Solutol-HS15 as described in Example 7. Further, all animals received BrdU (i.p. 50 mg/kg bodyweight) twice daily during these initial 5 days. BrdU is stably incorporated by dividing cells and therefore a suitable tool for the labelling of cells that divided within an experimentally defined time-window (i.e. the time during which BrdU was administered, which in the present example corresponds to the time during which Piperine was administered (Bagley et al BMC Neurosci. 2007; 8:92). The animals were sacrificed 6 weeks after the beginning of the treatment. Brains were removed rapidly, fixed with 4% paraformaldehyd and stored in 4% paraformaldehyd for further immunohistochemical analysis. 10 μm slices of the hippocampal area were generated and stained with sheep-anti-BrdU antibodies (Abcam, 1:100) and mouse-anti-NeuN antibodies (Chemicon, 1:500). Subsequently, the slices were stained for fluorescent detection with anti-sheep-biotin plus streptavidin-Cy2 and anti-mouse-Alexa555 (Molecular Probes, Fisher). […]

Q: With O=C(/C=C/C=C/c1ccc2c(c1)OCO2)N1CCCCC1 [Piperine, (E,E)-1-[5-(1,3-benzodioxol-5-yl)-1-oxo-2,4-pentadienyl]piperidine] as the compound, how does the tolerability [1] read?
A: well tolerated

Q: What about the anti-inflammatory activity [2] of the same compound?
A: significant anti-inflammatory activity

Q: And the “time of peak blood levels after dosing” value [3]?
A: 1 to 2 h

Q: And the solubility in water [4]?
A: essentially insoluble in water

Q: What about the “degree of apoptosis relative to the staurosporine control” value [5] of the same compound?
A: 70%

Q: What about the “seizure activity induced by L-glutamate, N-methyl-D-aspartate or guanidinosuccinate” value [6] of the same compound?
A: did not significantly block seizure activity

Q: What about the “clonic convulsions induced by kainate” value ([6]; injected intra-peritoneally) of the same compound?
A: inhibited clonic convulsions

Q: What about the “differentiation of neural stem cells to neurons, dose dependence” value ([7]; 0.2 μM up to 25, 50 or 100 μM, compared with sham and 1 μM retinoic acid) of the same compound?
A: significantly stimulates

Q: What about the fold induction at 1 µM ([7]; Rattus norvegicus, Neural stem cell, 1 μM final compound concentration, in comparison to sham treatment, read-out: Stimulation factor for differentiation of neural stem cells) of the same compound?
A: 2.1

Q: What about the “maximum concentration in rat brain tissue” value ([8]; i.v. bolus of 50 mg/kg) of the same compound?
A: about 4 μg/ml

Q: And the “passage of the blood-brain-barrier” value ([8]; rat, in vivo)?
A: passes the intact blood-brain-barrier

Q: What about the “neurogenesis (NeuN/BrdU-positive cells per slice) compared to the control level” value ([9]; 1 mg/kg i.p. once daily for 5 days (total 5 mg/kg)) of the same compound?
A: clearly elevated levels of neurogenesis

Q: What about the “neurogenesis (NeuN/BrdU-positive cells per slice) compared to the control level” value ([9]; 10 mg/kg i.p. once daily for 5 days (total 50 mg/kg)) of the same compound?
A: clearly elevated levels of neurogenesis
